Data on 2 compounds can be found in US20230201267A1, “RETINAL PIGMENTED EPITHELIUM AND PHOTORECEPTOR DUAL CELL AGGREGATES AND METHODS OF USE THEREOF” (FUJIFILM Cellular Dynamics, Inc., priority 2020, published 2023).

Test [1] has as its system RPE and PRP dual cell aggregates. In words: Dual cell aggregate formation in thaw medium with or without Y-27632 (phase contrast). It is filed as cell-based, human. To be noted: Y-27632 in thaw medium (RPE-MM), 1 RPE:8 PRP, compared with thaw without Y-27632. How it is done:
(§1) To characterize a dual cell aggregate culture, RPE were thawed in RPE-MM and PRP were thawed in RMN. If PRP were thawed as aggregates, either all aggregates or a sample of aggregates were TrypLE dissociated. Both cell types were counted using a ViCELL XR. RPE and PRP were combined at a desired cell ratio and cell number in RPE-MM and placed in a ULA T-75 flask on a belly dancer at 16-18 RPM to permit aggregate formation. Alternately, aggregates could be formed in a PBS mini vessel. To test in vivo function, some aggregates were transplanted into the subretinal space of a rat retina two days after aggregate formation. Surgery was performed to analyze the retinas. Aggregates or rat retinas were cryosectioned and analyzed by immunocytochemistry.
Dual cell aggregate formation without Y-27632 in thaw medium: As a first attempt to co-culture RPE and PRP as aggregates, RPE and PRP were thawed as single cells at a ratio of 1 RPE:3 PRP. Phase contrast images were captured at various time points (FIG. 1). […] However, after 21 and 69 days, aggregates had formed and appeared to be fairly regular, though skewed to a high RPE ratio, relative to PRP. Based on this experiment, all future experiments used the ROCK inhibitor Y-27632 when thawing RPE and maintained a lower RPE:PRP ratio. […]

Test [2] shares this test system. As to the kind of experiment: Effect of PGE-2 on long-term dual cell aggregate culture (immunocytochemistry). It is filed as cell-based, human. The following applies: with vs without PGE2. The procedure:
as §1
Effect of PGE-2 on long-term dual cell aggregate culture: During RPE culture, Prostaglandin E2 (PGE-2) is added to the culture medium from day 54 to day 68 of differentiation. PGE-2 is a hormone that stimulates RPE primary cilia formation and polarization, and its effect was tested on the dual cell aggregates (FIGS. 3-5). With this formulation of RPE and PRP, RPE generally appeared to form a majority of the aggregate, even after one month of culture. PRP did appear to mature after two months, indicated by the presence of PRPH2, an outer segment marker.

Turning to `C[C@@H](N)[C@H]1CC[C@H](C(=O)Nc2ccncc2)CC1` [Condition Y-27632], the aggregate formation efficiency entry in test [1] is given as “qualitatively more efficient”. On to `CCCCC[C@H](O)/C=C/[C@H]1[C@H](O)CC(=O)[C@@H]1C/C=C\CCCC(=O)O` [PGE2, Prostaglandin E2], for which the “PRP organization in dual cell aggregates” value in test [2] (one month after aggregate formation, initial ratio 1 RPE:8 PRP) is “Differences in PRP organization were apparent”. Moreover, in test [2] (one month of culture), the “RPE organization or rod formation in dual cell aggregates” value is “did not show striking differences”.
